We go through 35 compounds from patent publication US5972939A, “Cyclopentene derivatives useful as antagonists of the motilin receptor” (Ortho-McNeil Pharmaceutical, Inc., priority 1998, dated 1999).

As a reminder, the IC50 is the midpoint of a concentration-inhibition curve. What is called inhibition is the percentage by which the read-out fell short of the control. Low values mean a response near the control, high ones a response far below the control.

Molecules are shown by their SMILES. Where two headings read alike, the source gives them in different places.

The target in test [1] is T1, motilin receptors located on the colon of mature rabbits (Oryctolagus cuniculus, UniProt G1T803).
T1 construct: The colon from mature New Zealand rabbits was removed, dissected free from the mucosa and serosa layers, and diced into small pieces; from tissue; host or cells: colon smooth muscle of mature New Zealand rabbits, crude membrane homogenate
T1 sequence (G1T803 1-400): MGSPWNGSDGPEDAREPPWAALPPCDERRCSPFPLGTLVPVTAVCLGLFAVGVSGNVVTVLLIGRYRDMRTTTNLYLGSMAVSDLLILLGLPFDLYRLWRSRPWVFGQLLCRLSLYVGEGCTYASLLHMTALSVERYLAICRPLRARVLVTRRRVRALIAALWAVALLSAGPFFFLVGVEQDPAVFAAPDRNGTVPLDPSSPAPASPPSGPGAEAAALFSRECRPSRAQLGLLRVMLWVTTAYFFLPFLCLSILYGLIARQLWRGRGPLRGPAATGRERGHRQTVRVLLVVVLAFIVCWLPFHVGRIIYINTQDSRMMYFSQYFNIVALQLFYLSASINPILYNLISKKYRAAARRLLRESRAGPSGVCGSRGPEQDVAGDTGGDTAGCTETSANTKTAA
The experiment in a line: competition with radiolabeled (125I) porcine motilin for the motilin receptors of rabbit colon. Particulars: for IC50: rabbit colon, 125I motilin. The format is binding. How it is done:
The compounds of the invention were tested for their ability to compete with radiolabeled motilin (porcine) for the motilin receptors located on the colon of mature rabbits. The colon from mature New Zealand rabbits was removed, dissected free from the mucosa and serosa layers, and diced into small pieces. […] The homogenate was centrifuged at 1000×g for 15 min. and the supernatant discarded. The pellet was washed twice before being suspended in homogenizing buffer. This crude homogenate is then passed first through a 19 gauge needle then a 23 gauge needle to further suspend the material and stored as -80° C. […] After 30 min, at 30° C., the material was cooled on ice and centrifuged at 13,000×g for 1 minute. The pellet was washed with 1 mL 0.9% saline and centrifuged at 13,000×g for 15 seconds. The pellet was washed again with cold saline and the supernatant was removed. The pellet was counted in the gamma counter to determine the percentage of […] motilin and thereby the percent inhibition of the test compound. IC50s were determined for some compounds by standard techniques.

The test system of test [2] is rabbit duodenum smooth muscle (motilin and erythromycin induced contractions). The test can be described thus: inhibition of motilin (porcine) induced contractions in rabbit duodenum smooth muscle. Particulars: for IC50: rabbit duodenum strips, porcine motilin, read-out: IC50. The class given is cell-based. How it is done: Select compounds of the invention were evaluated for their ability to inhibit motilin and erythromycin induced contractions in the rabbit duodenum smooth muscle. Rabbits were fasted 24-48 h and euthanized. The venral midline incision was made approximately 7.5 cm above the umbilicus upto the xyphoid process, exposing the upper peritoneal cavity. The first 8 cm. of the duodenum starting at the pyloric valve was quickly removed and placed in Krebs solution containing NaCl, ([…]), KCl (4.7 mM), MgSO4 *7 H2 O (1.2 mM), CaCl2 *2 H2 O (2.4 mM), KH2 PO4 (1 mM), D-glucose (10 mM), and NaHCO3 (24 mM). The lumen was flushed with Krebs and excess tissue was removed. The tissue was cut lengthwise, splayed open with the longitudinal muscle layer facing up, and the longitudinal muscle layer was released away from the circular muscle and cut into 3×30 mm strips. A pre-tied 4-0 silk ligature with a loop was placed at the middle of the strip and the strip was folded over the loop so the strip was half its original length. The tissues were mounted in a 10 mL tissue bath (Radnotti Glass Technology, Inc., Monrovia, Calif.) containing Krebs solution gassed with 95% O2 5% CO2 at 37° C. […] The tissues were allowed to equilibrate for 60-90 min with 2-3 wash cycles. The tissues were equilibrated with two initial contractions induced by a concentration of acetylcholine (1×10^-4 M) that produced a maximal contraction (0.1 mM), with the highest taken as 100% maximall contraction of that tissue. Base line and response levels are expressed as grams tension developed and as a percent of the response to acetylcholine. The test compounds were dissolved in DMSO (2 mM/100% DMSO) and applied to the prepared strips 5-15 minutes prior to the addition of porcine motilin. After addition, the tension is constantly monitored over 5 min and the maximum tension is recorded. The percent contraction was measured at four ascending concentrations and where appropriate IC50s were determined.

For `O=C(Nc1ccccc1)N(CC1=CC(Cc2ccccc2)(NC(=O)C(Cl)(Cl)Cl)CC1)c1cccc(OCCN2CCOCC2)c1` (stereo not shown) [Compound 7, 3-Benzyl-3-trichloroacetylamino-1-(N-phenylaminocarbonyl)-N-[(3-(2-morpholinoethoxy)phenyl)amino]methylcyclopentene], the 50% inhibitory concentration (IC50) came out at 0.045 µM in test [1] (read-out: IC50) and 0.287 µM in test [2].

Regarding `O=C(Nc1ccccc1)N(CC1=CC(Cc2ccccc2)(NC(=O)C(Cl)(Cl)Cl)CC1)c1cccc(OCCN2CCOCC2)c1` (stereo not shown) [Compound 8], the IC50 in test [1] (read-out: IC50) is 0.02 µM; in test [2], 0.28 µM.

As for `O=C(Nc1ccccc1)N(CC1=CC(Cc2ccccc2)(NC(=O)C(Cl)(Cl)Cl)CC1)c1cccc(OCCN2CCOCC2)c1` (stereo not shown) [Compound 9, 3-Benzyl-3-trichloroacetylamino-1-(N-phenylaminocarbonyl)-N-[(3-(2-morpholinoethoxy)phenyl)amino]methylcyclopentene], the half-inhibitory concentration (IC50) was over 0.3 µM in test [1] (read-out: IC50) and 0.89 µM in test [2].

Take `O=C(c1ccccc1)N(CC1=CC(Cc2ccccc2)(NC(=O)C(Cl)(Cl)Cl)CC1)c1cccc(OCCN2CCOCC2)c1` (stereo not shown) [Compound 10, 3-Benzyl-3-trichloroacetylamino-1-(N-phenylcarbonyl)-N-[(3-(2-morpholinoethoxy)phenyl)amino]methylcyclopentene]: the IC50 in test [1] (read-out: IC50 (unit inferred)) was found to be 0.3 µM; in test [2] (Oryctolagus cuniculus) it was 0.393 µM.

In test [1], `CCN(CC)CCN(CC1=CC(Cc2ccccc2)(NC(=O)C(Cl)(Cl)Cl)CC1)c1cccc(O)c1` (stereo not shown) [Compound 50] gave an inhibition at 10 µM of 81%. The compound also yielded an inhibition at 20 µM in test [2] (Oryctolagus cuniculus, @ 20 μM) of 98%.

On to `CCN(CC)CCOc1cccc(N(CCN(CC)CC)CC2=CC(Cc3ccccc3)(NC(=O)C(Cl)(Cl)Cl)CC2)c1` (stereo not shown) [Compound 51], for which 5 µM produced 74% inhibition in test [2] (Oryctolagus cuniculus).

For `CCN(CC)CCN(CC1=CC(Cc2ccccc2)(NC(=O)C(Cl)(Cl)Cl)CC1)c1cccc(OCCN2CCCCC2)c1` (stereo not shown) [Compound 52], the concentration for half-maximal inhibition (IC50) in test [1] (read-out: IC50 (unit inferred)) stood at 0.6 µM. This compound also had an inhibition at 10 µM in test [2] (Oryctolagus cuniculus, @ 10 μM) of 70%.

In the case of `CCN(CC)CCN(CC1=CC(Cc2ccccc2)(NC(=O)C(Cl)(Cl)Cl)CC1)c1cccc(OCCN2CCOCC2)c1` (stereo not shown) [Compound 53], the IC50 in test [1] (read-out: IC50 (unit inferred)) was 0.3 µM; in test [2] (Oryctolagus cuniculus), 3.93 µM.

With `CCN(CC)CCN(CC1=CC(Cc2ccccc2)(NC(=O)C(Cl)(Cl)Cl)CC1)c1cccc(OCCCN2CCCCC2)c1` (stereo not shown) [Compound 54], the half-maximal inhibitory concentration (IC50) in test [1] (read-out: IC50 (unit inferred)) turned out to be 0.9 µM. Also, in test [2] (Oryctolagus cuniculus), the inhibition at 5 µM amounted to 24%.

As for `O=C(c1ccncc1)N(CC1=CC(Cc2ccccc2)(NC(=O)C(Cl)(Cl)Cl)CC1)c1cccc(OCCN2CCOCC2)c1` (stereo not shown) [Compound 111], the inhibition at 1 µM in test [1] worked out at 51%.

As to `O=C(Nc1cccc(Br)c1)N(CC1=CC(Cc2ccccc2)(NC(=O)C(Cl)(Cl)Cl)CC1)c1cccc(OCCN2CCOCC2)c1` (stereo not shown) [Compound 112], in test [1], the inhibition at 1 µM worked out at 51%.

In test [1], `O=C(c1cccc(F)c1)N(CC1=CC(Cc2ccccc2)(NC(=O)C(Cl)(Cl)Cl)CC1)c1cc(OCCN2CCOCC2)ccc1Cl` (stereo not shown) [Compound 113] returned an inhibition at 1 µM of 59%.

Compound `O=C(c1ccc(F)c(F)c1)N(CC1=CC(Cc2ccccc2)(NC(=O)C(Cl)(Cl)Cl)CC1)c1cc(OCCN2CCOCC2)ccc1Cl` (stereo not shown) [Compound 114] yielded an inhibition at 100 µM in test [1] (@ 100 μM) of 52%.

In turn, `O=C(c1sccc1Br)N(CC1=CC(Cc2ccccc2)(NC(=O)C(Cl)(Cl)Cl)CC1)c1cccc(OCCN2CCOCC2)c1` (stereo not shown) [Compound 115] had an inhibition at 1 µM in test [1] of 65%.

In test [1], `O=C(c1ccc([N+](=O)[O-])cc1)N(CC1=CC(Cc2ccccc2)(NC(=O)C(Cl)(Cl)Cl)CC1)c1cccc(OCCN2CCOCC2)c1` (stereo not shown) [Compound 116] yielded an inhibition at 0.1 µM of 69%.

As to `O=C(C(c1ccccc1)c1ccccc1)N(CC1=CC(Cc2ccccc2)(NC(=O)C(Cl)(Cl)Cl)CC1)c1cccc(OCCN2CCOCC2)c1` (stereo not shown) [Compound 117], testing at 1 µM in test [1] gave an inhibition of 42%.

In turn, `O=C(Oc1ccccc1)N(CC1=CC(Cc2ccccc2)(NC(=O)C(Cl)(Cl)Cl)CC1)c1cccc(OCCN2CCOCC2)c1` (stereo not shown) [Compound 118] yielded an inhibition at 1 µM in test [1] of 51%.

As to `O=C(NC1CCCCC1)N(CC1=CC(Cc2ccccc2)(NC(=O)C(Cl)(Cl)Cl)CC1)c1cccc(OCCN2CCOCC2)c1` (stereo not shown) [Compound 119], the inhibition at 1 µM in test [1] was determined as 56%.

As for `O=C(Nc1ccc(F)cc1)N(CC1=CC(Cc2cccc(Cl)c2)(NC(=O)C(Cl)(Cl)Cl)CC1)c1cccc(OCCN2CCOCC2)c1` (stereo not shown) [Compound 120], the IC50 in test [1] (read-out: IC50) worked out at 0.01 µM.

For `O=C(c1ccc(F)cc1)N(CC1=CC(Cc2cccc(Cl)c2)(NC(=O)C(Cl)(Cl)Cl)CC1)c1cccc(OCCN2CCOCC2)c1` (stereo not shown) [Compound 121], the half-maximal inhibitory concentration (IC50) in test [1] (read-out: IC50) turned out to be 0.03 µM.

`O=C(c1ccc2c(c1)OCO2)N(CC1=CC(Cc2ccccc2)(NC(=O)C(Cl)(Cl)Cl)CC1)c1cccc(OCCN2CCOCC2)c1` (stereo not shown) [Compound 122] came in with an inhibition at 1 µM in test [1] of 77%.

`CC(C)C1(NC(=O)C(Cl)(Cl)Cl)C=C(CN(C(=O)Nc2ccccc2)c2cccc(OCCN3CCOCC3)c2)CC1` (stereo not shown) [Compound 123] yielded an inhibition at 1 µM in test [1] of 51%.

Turning to `O=C(c1cccc2ccccc12)N(CC1=CC(Cc2ccccc2)(NC(=O)C(Cl)(Cl)Cl)CC1)c1cccc(OCCN2CCOCC2)c1` (stereo not shown) [Compound 124], the inhibition at 0.1 µM in test [1] amounted to 40%.

The compound `O=C(c1ccc(F)cc1)N(CC1=CC(Cc2ccc(F)cc2)(NC(=O)C(Cl)(Cl)Cl)CC1)c1cccc(OCCN2CCOCC2)c1` (stereo not shown) [Compound 125] yielded an inhibition at 0.04 µM in test [1] of 43%.

For the compound `O=C(c1cccc(F)c1)N(CC1=CC(Cc2ccc(F)cc2)(NC(=O)C(Cl)(Cl)Cl)CC1)c1cccc(OCCN2CCOCC2)c1` (stereo not shown) [Compound 126], in test [1], the inhibition at 0.04 µM worked out at 44%.

In turn, `O=C(Nc1ccccc1)N(CC1=CC(NC(=O)C(Cl)(Cl)Cl)(c2ccccc2)CC1)c1cccc(OCCN2CCOCC2)c1` (stereo not shown) [Compound 127] displayed an inhibition at 0.1 µM in test [1] of 33%.

With `O=C(c1ccc(F)cc1)N(CC1=CC(NC(=O)C(Cl)(Cl)Cl)(c2ccccc2)CC1)c1cccc(OCCN2CCOCC2)c1` (stereo not shown) [Compound 128], in test [1], the inhibition at 0.1 µM amounted to 43%.

Compound `O=C(c1ccc(Br)cc1)N(CC1=CC(Cc2cccc(Cl)c2)(NC(=O)C(Cl)(Cl)Cl)CC1)c1cccc(OCCN2CCOCC2)c1` (stereo not shown) [Compound 129] displayed an inhibition at 0.1 µM in test [1] of 70%.

For the compound `O=C(c1ccc(F)c(F)c1)N(CC1=CC(Cc2cccc(Cl)c2)(NC(=O)C(Cl)(Cl)Cl)CC1)c1cccc(OCCN2CCOCC2)c1` (stereo not shown) [Compound 130], the inhibition at 0.1 µM in test [1] was found to be 78%.

On to `O=C(NC1(Cc2ccccc2)C=C(CNc2cccc(OCCN3CCOCC3)c2)CC1)C(F)(F)F` (stereo not shown) [Compound 131], for which, in test [1], the inhibition at 10 µM amounted to 25%.

In test [1], `CC(=O)NC1(Cc2ccccc2)C=C(CN(C(=O)c2ccc(F)cc2)c2cccc(OCCN3CCOCC3)c2)CC1` (stereo not shown) [Compound 133] returned an inhibition at 1 µM of 51%.

As to `O=C(Nc1ccccc1)N(CC1=CC(Cc2ccccc2)(NC(=O)C(F)(F)F)CC1)c1cccc(OCCN2CCOCC2)c1` (stereo not shown) [Compound 134], in test [1], at 1 µM the inhibition was 69%.

Consider `O=C(Nc1ccccc1)N(CC1=CC(Cc2ccccc2)(NC(=O)C(Cl)(Cl)Cl)CC1)c1cccc(OCC[N+]2([O-])CCOCC2)c1` (stereo not shown) [Compound 136], for which, in test [1], the inhibition at 1 µM was 57%.

Regarding `O=C(c1ccc(Br)cc1)N(CC1=CC(Cc2ccccc2)(NC(=O)C(Cl)(Cl)Cl)CC1)c1cccc(OCC[N+]2([O-])CCOCC2)c1` (stereo not shown) [Compound 137], the inhibition at 1 µM in test [1] stood at 50%.

Turning to `O=C(c1ccc(-c2ccccc2)cc1)N(CC1=CC(Cc2ccccc2)(NC(=O)C(Cl)(Cl)Cl)CC1)c1cccc(OCCN2CCOCC2)c1` (stereo not shown) [Compound 1407], in test [1], the inhibition at 1 µM came out at 58%.
